We go through three substances from article PMC6209519 (Organic & biomolecular chemistry, 2018).

One data set relates to HIV-1. The following applies: across the strains tested, compared with 1.
Another data set relates to chymotrypsin. The data set is described as follows: Enzymatic hydrolysis assay with chymotrypsin. Type of data set: in vitro ADME. The following applies: isolated enzyme chymotrypsin.

For the substance MTWEEWDKKIEEYTKKIEELIγKS [Peptide 3], the “increase in antiviral activity relative to peptide 1” value in the data set with HIV-1 is given as < 2 fold. Also, in the data set with chymotrypsin, the “% remaining after 10 mins” value amounted to 17.6%.

With Enfuvirtide, the IC50 (usually the concentration that gives 50% inhibition) was determined as 56 ± 1.6 nM in the data set on HIV-1 DU422, 6.5 ± 0.6 nM in the data set with HIV-1 MN, 23.9 ± 2.1 nM in the data set on HIV-1 SF162 and 941 ± 328 nM in the data set on HIV-1 CZA97.

Consider “MTWXEWDXKIEEYTKKIEELIγKS (sidechain bridge or staple) [Peptide 4]”, for which, in the data set on chymotrypsin, the “% remaining after 10 mins” value was 57.2%.
